In experiment [1] the test system is Escherichia coli. Briefly: Antibacterial activity against Escherichia coli AG102MB. It is filed as functional.
In experiment [2] the test system is Escherichia coli. Briefly: Antibacterial activity against Escherichia coli AG102MB harboring pS1328-based acrB gene. It is filed as functional.
For experiment [3], the system named is Escherichia coli. As to the kind of experiment: Antibacterial activity against Escherichia coli AG102MB harboring naive acrB gene. It is filed as functional.
Experiment [4] concerns Escherichia coli. As to the kind of experiment: Antibacterial activity against Escherichia coli AG102MB harboring pSportI cloning vector.
Experiment [5] deals with Escherichia coli. As to the kind of experiment: Antibacterial activity against Escherichia coli AG102MB harboring pP10-based acrB gene. It counts as functional.

Molecules are shown by their SMILES. Converted amounts (≈) assume the structure as drawn.

On to `C[C@H](CCC(=O)O)[C@H]1CC[C@H]2[C@@H]3[C@H](O)C[C@@H]4C[C@H](O)CC[C@]4(C)[C@H]3C[C@H](O)[C@]12C` [CHOLIC ACID], for which the minimal inhibitory concentration (MIC) against Escherichia coli [1] was 4 µg/mL (≈ 9.79 µM); with Escherichia coli [2], 16 µg/mL (≈ 39.2 µM); in the experiment with Escherichia coli [3], 8 µg/mL (≈ 19.6 µM); in the experiment with Escherichia coli [4], 4 µg/mL (≈ 9.79 µM); in the experiment on Escherichia coli [5] it was 8 µg/mL (≈ 19.6 µM).
As to `CC[C@H]1OC(=O)[C@H](C)[C@@H](O[C@H]2C[C@@](C)(OC)[C@@H](O)[C@H](C)O2)[C@H](C)[C@@H](O[C@@H]2O[C@H](C)C[C@H](N(C)C)[C@H]2O)[C@](C)(O)C[C@@H](C)C(=O)[C@H](C)[C@@H](O)[C@]1(C)O` [ERYTHROMYCIN], the minimal inhibitory concentration (MIC) against Escherichia coli [1] turned out to be 4 µg/mL (≈ 5.45 µM); against Escherichia coli [2] it was 512 µg/mL (≈ 698 µM); with Escherichia coli [3], 128 µg/mL (≈ 174 µM); in the experiment with Escherichia coli [4], 8 µg/mL (≈ 10.9 µM); in the experiment on Escherichia coli [5] it was 128 µg/mL (≈ 174 µM).
`CN(C)c1ccc(C(=C2C=CC(=[N+](C)C)C=C2)c2ccc(N(C)C)cc2)cc1.[Cl-]` [GENTIAN VIOLET]: the MIC against Escherichia coli [1] turned out to be 0.5 µg/mL; in the experiment with Escherichia coli [2], 4 µg/mL; with Escherichia coli [3] it was 4 µg/mL; in the experiment on Escherichia coli [4] it was 0.5 µg/mL; in the experiment with Escherichia coli [5] it was 4 µg/mL.
For `CC[n+]1c(-c2ccccc2)c2cc(N)ccc2c2ccc(N)cc21.[Br-]` [HOMIDIUM BROMIDE], the minimum inhibitory concentration (MIC) against Escherichia coli [1] came to 4 µg/mL; in the experiment with Escherichia coli [2] it was 64 µg/mL; against Escherichia coli [3] it was 128 µg/mL; in the experiment with Escherichia coli [4], 2 µg/mL; against Escherichia coli [5], 64 µg/mL.
Turning to `CN(C)[C@@H]1C(O)=C(C(N)=O)C(=O)[C@@]2(O)C(O)=C3C(=O)c4c(O)cccc4[C@@](C)(O)[C@H]3C[C@@H]12` [TETRACYCLINE], the MIC against Escherichia coli [1] came out at 1 µg/mL (≈ 2.25 µM); with Escherichia coli [2], 16 µg/mL (≈ 36 µM); in the experiment on Escherichia coli [3], 8 µg/mL (≈ 18 µM); in the experiment on Escherichia coli [4], 1 µg/mL (≈ 2.25 µM); with Escherichia coli [5] it was 8 µg/mL (≈ 18 µM).
As to `NC[C@H]1O[C@H](O[C@H]2[C@H](O)[C@@H](O[C@H]3O[C@H](CO)[C@@H](O)[C@H](N)[C@H]3O)[C@H](N)C[C@@H]2N)[C@H](O)[C@@H](O)[C@@H]1O` [KANAMYCIN], in the experiment on Escherichia coli [1], the MIC is > 1020 µg/mL.
As to `CO[C@H]1C[C@H](O[C@H]2[C@H](C)[C@@H](O[C@@H]3O[C@H](C)C[C@H](N(C)C)[C@H]3O)[C@@H](C)C[C@@]3(CO3)C(=O)[C@H](C)[C@@H](O)[C@@H](C)[C@@H](C)OC(=O)[C@@H]2C)O[C@@H](C)[C@@H]1O` [OLEANDOMYCIN], the MIC against Escherichia coli [1] is 256 µg/mL (≈ 372 µM); against Escherichia coli [2], > 1020 µg/mL; in the experiment on Escherichia coli [3], > 1020 µg/mL; against Escherichia coli [4] it was 64 µg/mL (≈ 93 µM); with Escherichia coli [5] it was > 1020 µg/mL.
For `CC1(C)S[C@@H]2[C@H](NC(=O)[C@H](N)c3ccccc3)C(=O)N2[C@H]1C(=O)O` [AMPICILLIN], the MIC against Escherichia coli [1] is 16 µg/mL (≈ 45.8 µM); in the experiment on Escherichia coli [2], > 1020 µg/mL; in the experiment on Escherichia coli [3], > 1020 µg/mL; against Escherichia coli [4], > 1020 µg/mL; with Escherichia coli [5], > 1020 µg/mL.
Take `O=C(O)c1cn(C2CC2)c2cc(N3CCNCC3)c(F)cc2c1=O` [CIPROFLOXACIN]: the MIC against Escherichia coli [1] is 0.063 µg/mL (≈ 0.19 µM).
`CO[C@@H]1[C@@H](OC(N)=O)[C@@H](O)[C@H](Oc2ccc3c(O)c(NC(=O)c4ccc(O)c(CC=C(C)C)c4)c(=O)oc3c2C)OC1(C)C` [NOVOBIOCIN]: the MIC amounted to 4 µg/mL (≈ 6.53 µM) against Escherichia coli [1]; 512 µg/mL (≈ 836 µM) with Escherichia coli [2]; 512 µg/mL (≈ 836 µM) in the experiment with Escherichia coli [3]; 8 µg/mL (≈ 13.1 µM) in the experiment with Escherichia coli [4]; 512 µg/mL (≈ 836 µM) in the experiment with Escherichia coli [5].
For the compound `O=C(N[C@H](CO)[C@H](O)c1ccc([N+](=O)[O-])cc1)C(Cl)Cl` [CHLORAMPHENICOL], the MIC against Escherichia coli [1] was determined as 2 µg/mL (≈ 6.19 µM); with Escherichia coli [4], 4 µg/mL (≈ 12.4 µM); in the experiment on Escherichia coli [5], 32 µg/mL (≈ 99 µM).
In the case of `CC[C@H]1OC(=O)C[C@@H](O)[C@H](C)[C@@H](O[C@@H]2O[C@H](C)[C@@H](O[C@H]3C[C@@](C)(O)[C@@H](O)[C@H](C)O3)[C@H](N(C)C)[C@H]2O)[C@@H](CC=O)C[C@@H](C)C(=O)/C=C/C(C)=C/[C@@H]1CO[C@@H]1O[C@H](C)[C@@H](O)[C@@H](OC)[C@H]1OC` [TYLOSIN], the MIC with Escherichia coli [1] is 128 µg/mL (≈ 140 µM); in the experiment on Escherichia coli [2], > 1020 µg/mL; in the experiment with Escherichia coli [3], 1020 µg/mL (≈ 1120 µM); with Escherichia coli [4], 16 µg/mL (≈ 17.5 µM); in the experiment with Escherichia coli [5], 1020 µg/mL (≈ 1120 µM).
In the case of `CC(=O)O[C@H]1C[C@@]2(C)[C@@H](C[C@@H](O)[C@H]3[C@@]4(C)CC[C@@H](O)[C@@H](C)[C@@H]4CC[C@@]32C)/C1=C(\CCC=C(C)C)C(=O)O` [FUSIDIC ACID], the MIC in the experiment with Escherichia coli [1] is 16 µg/mL (≈ 31 µM); in the experiment on Escherichia coli [2] it was > 512 µg/mL; against Escherichia coli [3], > 512 µg/mL; with Escherichia coli [4], 8 µg/mL (≈ 15.5 µM); in the experiment on Escherichia coli [5] it was > 512 µg/mL.

For orientation: MIC means the lowest concentration found to suppress growth. Low readings indicate a more susceptible organism, high ones a less susceptible organism.
